Measurements taken from patent US20130236529A1, “COMPOSITION AND METHODS TO ENHANCE ANTI-OXIDATION, GUT FLORA AND IMMUNITY IN PETS” (FLAVITPURE, INC., priority 2012, published 2013).

Assays:
[1] = oxidation of 2′-deoxyguanosine, Fenton reaction catalyzed by copper; cited from earlier work
[2] = tested on: human lung embryonic fibroblasts (TIG-1); conditions: TIG-1 cells; cited from earlier work
[3] = tested on: NQO1; conditions: microarray, in the presence of taxifolin; cited from earlier work
[4] = tested on: CYP2E1; conditions: microarray, in the presence of taxifolin; cited from earlier work
[5] = tested on: umbilical vein endothelial (HUVE) cells; conditions: cited from earlier work
[6] = tested on: GSTM1; conditions: microarray, in the presence of taxifolin; cited from earlier work
[7] = ORAC hydro antioxidant capacity assay
Text: The majority of HAT-based assays apply a competitive reaction scheme, in which antioxidant and substrate compete for thermally generated peroxyl radicals through the decomposition of azo compounds. ORAC is an assay for the […] oxygen radical absorbance capacity. The ORAC hydro tests the capacity dihydroquercetin generated hydrogen atom transfer (HAT) to compete for thermally generated peroxyl radicals and hydroxyl radicals. For the latter it is necessary to use the ORAC assay test. Unlike electron transfer based assays that measure an antioxidant's reducing capacity, and the hat-based assays measure the hydrogen atom donating capacity. The hydrogen atom transfer is a key step in the radical chain reaction. Therefore, the hat-based assays are more relevant to the radical chain-breaking antioxidant capacity. Among all the hat-based assays, ORAC adopted an AUC (area under curve) technique to quantify antioxidant capacity. […] This approach unifies the lag time method and initial rate method, and it is particularly useful for food samples, which often contain multiple ingredients and have complex reaction kinetics. Therefore, the ORAC assay has been broadly applied in academics and the food and supplement industry as the method of choice to quantify antioxidant capacity. […]

[8] = relative to quercetin; cited from earlier work

Molecule	pro-oxidant activity [1]	50% lethal concentration [2] [µmol]	expression of phase II detoxification enzyme NQO1 [3]	expression of phase I detoxification enzyme CYP2E1 [4]	50% lethal concentration [5] [µmol]	expression of phase II detoxification enzyme GSTM1 [6]	orachydro value ([7]; per 420 mg capsule)	orachydro value ([7]; per gram)	times less mutagenic than quercetin [8] [times]
catechin [reference compound]	did not present pro-oxidant activity								
O=C1c2c(O)cc(O)cc2O[C@H](c2ccc(O)c(O)c2)[C@H]1O [Dihydroquercetin]	did not present pro-oxidant activity	> 300	upregulated	down regulated	> 200	upregulated	≥ 300 micromole of trolox equivalent per 420 mg capsule	≥ 800 micromole trolox equivalent per gram	400
